Literature values as cited in paper PMC8308777, “Small Molecule–Peptide Conjugates as Dimerization Inhibitors of Leishmania infantum Trypanothione Disulfide Reductase” (Pharmaceuticals, 2021).

Target: T1, Leishmania infantum trypanothione disulfide reductase (LiTryR) (Leishmania infantum, UniProt A4HSF7)
T1 construct: HIS; made in house; host or cells: E. coli BL21 (DE3) Rossetta 2
Settings: earlier work of the authors; cited from earlier work
Text: Considering that the biologically functional form of TryR is a homodimer, in 2013, we devised an alternative inhibition strategy aimed at disrupting the protein–protein interactions at the homodimer interface of Leishmania infantum TryR (LiTryR). Thus, by combining molecular modeling and site-directed mutagenesis studies, we identified and validated, for the first time, Glu436 (located at an interfacial α-helix spanning from Pro435 to Met447) as a “hotspot” for LiTryR homodimer stabilization. As a “proof of concept”, we designed and tested a small library of linear peptides [[22] ...

T1 sequence (A4HSF7 entry or part of it): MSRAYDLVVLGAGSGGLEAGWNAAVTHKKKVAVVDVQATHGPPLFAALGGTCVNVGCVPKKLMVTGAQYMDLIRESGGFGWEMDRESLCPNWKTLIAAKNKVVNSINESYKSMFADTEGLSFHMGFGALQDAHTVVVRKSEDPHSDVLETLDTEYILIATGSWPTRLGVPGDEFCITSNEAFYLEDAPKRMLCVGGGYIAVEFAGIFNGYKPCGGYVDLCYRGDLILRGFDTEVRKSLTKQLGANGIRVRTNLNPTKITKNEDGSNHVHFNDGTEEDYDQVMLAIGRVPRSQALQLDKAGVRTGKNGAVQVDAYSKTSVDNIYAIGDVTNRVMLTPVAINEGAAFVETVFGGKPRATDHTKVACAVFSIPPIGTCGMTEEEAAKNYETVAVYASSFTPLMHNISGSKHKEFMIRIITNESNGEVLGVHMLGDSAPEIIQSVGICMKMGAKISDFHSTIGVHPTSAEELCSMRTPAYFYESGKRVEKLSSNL

Ac-PKIIQSVGISMKM-NH2 [TRL35, Nα-acetylated 13-mer peptide, earlier LiTryR dimerization disruptor]
inhibition of the oxidoreductase activity of LiTryR: submicromolar range
